Measured values taken from patent publication US20040063662A1, “Selenophene anti-tumor agents” (priority 1996, published 2004).

Columns and labels:
[1] = tested on: SF-295; experiment: NCI human tumor cell panel: SF-295 (CNS Cancer); assay type: cell-based
[2] = tested on: MCF7; experiment: NCI human tumor cell panel: MCF7 (Breast Cancer); assay type: cell-based
[3] = tested on: MCF7/ADR-RES; experiment: NCI human tumor cell panel: MCF7/ADR-RES (Breast Cancer); assay type: cell-based
[4] = tested on: UO-31; experiment: NCI human tumor cell panel: UO-31 (Renal Cancer); assay type: cell-based
[5] = tested on: OVCAR-5; experiment: NCI human tumor cell panel: OVCAR-5 (Ovarian Cancer); assay type: cell-based
[6] = tested on: OVCAR-4; experiment: NCI human tumor cell panel: OVCAR-4 (Ovarian Cancer); assay type: cell-based
[7] = tested on: M14; experiment: NCI human tumor cell panel: M14 (Melanoma); assay type: cell-based
[8] = tested on: SW-620; experiment: NCI human tumor cell panel: SW-620 (Colon Cancer); assay type: cell-based
[9] = tested on: RPMI-8226; experiment: NCI human tumor cell panel: RPMI-8226 (Leukemia); assay type: cell-based
[10] = tested on: NCI-H460; experiment: NCI human tumor cell panel: NCI-H460 (Non-Small Cell Lung Cancer); assay type: cell-based
[11] = tested on: HOP-62; experiment: NCI human tumor cell panel: HOP-62 (Non-Small Cell Lung Cancer); assay type: cell-based
[12] = tested on: UACC-62; experiment: NCI human tumor cell panel: UACC-62 (Melanoma); assay type: cell-based
[13] = tested on: DU-145; experiment: NCI human tumor cell panel: DU-145 (Prostate Cancer); assay type: cell-based
[14] = tested on: SF-539; experiment: NCI human tumor cell panel: SF-539 (CNS Cancer); assay type: cell-based
[15] = tested on: A498; experiment: NCI human tumor cell panel: A498 (Renal Cancer); assay type: cell-based
[16] = tested on: UACC-257; experiment: NCI human tumor cell panel: UACC-257 (Melanoma); assay type: cell-based
[17] = tested on: OVCAR-8; experiment: NCI human tumor cell panel: OVCAR-8 (Ovarian Cancer); assay type: cell-based
[18] = tested on: SK-MEL-5; experiment: NCI human tumor cell panel: SK-MEL-5 (Melanoma); assay type: cell-based
[19] = tested on: 786-0; experiment: NCI human tumor cell panel: 786-0 (Renal Cancer); assay type: cell-based
[20] = tested on: SR; experiment: NCI human tumor cell panel: SR (Leukemia); assay type: cell-based
[21] = tested on: LOX IMVI; experiment: NCI human tumor cell panel: LOX IMVI (Melanoma); assay type: cell-based
[22] = tested on: NCI-H23; experiment: NCI human tumor cell panel: NCI-H23 (Non-Small Cell Lung Cancer); assay type: cell-based; settings: NCI-H23, read-out: Log10 GI50 (converted)
[23] = tested on: CCRF-CEM; experiment: NCI human tumor cell panel: CCRF-CEM (Leukemia); assay type: cell-based
[24] = tested on: HOP-92; experiment: NCI human tumor cell panel: HOP-92 (Non-Small Cell Lung Cancer)
[25] = tested on: IGROV1; experiment: NCI human tumor cell panel: IGROV1 (Ovarian Cancer); assay type: cell-based
[26] = tested on: SNB-75; experiment: NCI human tumor cell panel: SNB-75 (CNS Cancer); assay type: cell-based
[27] = tested on: SK-MEL-2; experiment: NCI human tumor cell panel: SK-MEL-2 (Melanoma); assay type: cell-based
[28] = tested on: MDA-N; experiment: NCI human tumor cell panel: MDA-N (Breast Cancer); assay type: cell-based
[29] = read-out: Log10 GI50 (converted)
[30] = read-out: Log10 TGI (converted)

## OCc1ccc(-c2ccc(-c3ccc[se]3)[se]2)[se]1 [compound 675246]
[1]; SF-295, read-out: Log10 GI50 (converted)
  GI50: 10.7 µM
[1]; SF-295, read-out: Log10 TGI (converted)
  IC (TGI): 27.5 µM
[2]; MCF7, read-out: Log10 GI50 (converted)
  GI50: 0.145 µM
[2]; MCF7, read-out: Log10 TGI (converted)
  IC (TGI): 3.8 µM
[3]; [29]
  GI50: 5.13 µM
[3]; [30]
  IC (TGI): 46.8 µM
[4]; UO-31, read-out: Log10 GI50 (converted)
  GI50: 6.17 µM
[4]; UO-31, read-out: Log10 TGI (converted)
  IC (TGI): 38.9 µM
[5]; OVCAR-5, read-out: Log10 GI50 (converted)
  GI50: 0.182 µM
[5]; OVCAR-5, read-out: Log10 TGI (converted)
  IC (TGI): 25.1 µM
[6]; OVCAR-4, read-out: Log10 GI50 (converted)
  GI50: 0.575 µM
[6]; OVCAR-4, read-out: Log10 TGI (converted)
  IC (TGI): 12.3 µM
[7]; M14, read-out: Log10 GI50 (converted)
  GI50: 8.71 µM
[7]; M14, read-out: Log10 TGI (converted)
  IC (TGI): 24 µM
[8]; SW-620, read-out: Log10 GI50 (converted)
  GI50: 0.417 µM
[8]; SW-620, read-out: Log10 TGI (converted)
  IC (TGI): 10.2 µM
[9]; RPMI-8226, read-out: Log10 GI50 (converted)
  GI50: 7.41 µM
[9]; RPMI-8226, read-out: Log10 TGI
  IC (TGI): > 100 µM
[10]; NCI-H460, read-out: Log10 GI50 (converted)
  GI50: 0.324 µM
[10]; NCI-H460, read-out: Log10 TGI (converted)
  IC (TGI): 3.63 µM
[11]; HOP-62, read-out: Log10 GI50 (converted)
  GI50: 7.24 µM
[11]; HOP-62, read-out: Log10 TGI (converted)
  IC (TGI): 20.4 µM
[12]; UACC-62, read-out: Log10 GI50 (converted)
  GI50: 0.0102 µM
[12]; UACC-62, read-out: Log10 TGI (converted)
  IC (TGI): 11.2 µM
[13]; DU-145, read-out: Log10 GI50 (converted)
  GI50: 10.2 µM
[13]; DU-145, read-out: Log10 TGI (converted)
  IC (TGI): 21.9 µM
[14]; SF-539, read-out: Log10 GI50 (converted)
  GI50: 12.3 µM
[14]; SF-539, read-out: Log10 TGI (converted)
  IC (TGI): 25.1 µM
[15]; A498, read-out: Log10 GI50 (converted)
  GI50: 0.0389 µM
[15]; A498, read-out: Log10 TGI (converted)
  IC (TGI): 0.166 µM
[16]; UACC-257, read-out: Log10 GI50 (converted)
  GI50: 0.0501 µM
[16]; UACC-257, read-out: Log10 TGI (converted)
  IC (TGI): 0.224 µM
[17]; OVCAR-8, read-out: Log10 GI50 (converted)
  GI50: 5.01 µM
[17]; OVCAR-8, read-out: Log10 TGI (converted)
  IC (TGI): 33.1 µM
[18]; SK-MEL-5, read-out: Log10 GI50 (converted)
  GI50: 2.63 µM
[18]; SK-MEL-5, read-out: Log10 TGI (converted)
  IC (TGI): 8.91 µM
[19]; 786-0, read-out: Log10 GI50 (converted)
  GI50: 2.19 µM
[19]; 786-0, read-out: Log10 TGI (converted)
  IC (TGI): 5.25 µM
[20]; [29]
  GI50: 6.61 µM
[20]; [30]
  IC (TGI): > 100 µM
[21]; [29]
  GI50: 3.63 µM
[21]; [30]
  IC (TGI): 9.77 µM
[22]
  GI50: 13.2 µM
[23]; [29]
  GI50: 3.16 µM
[23]; [30]
  IC (TGI): 12.3 µM
[24]; HOP-92, read-out: Log10 GI50 (converted)
  GI50: 2.63 µM
[24]; HOP-92, read-out: Log10 TGI
  IC (TGI): 11.2 µM
[25]; IGROV-1, IGROV1, read-out: Log10 GI50 (converted)
  GI50: 0.0537 µM
[25]; IGROV-1, IGROV1, read-out: Log10 TGI (converted)
  IC (TGI): 2.24 µM
[26]; SNB-75, read-out: Log10 GI50 (converted)
  GI50: 3.89 µM
[26]; SNB-75, read-out: Log10 TGI (converted)
  IC (TGI): > 100 µM
[27]; SK-MEL-2, read-out: Log10 GI50 (converted)
  GI50: 9.12 µM
[27]; SK-MEL-2, read-out: Log10 TGI (converted)
  IC (TGI): 25.7 µM
[28]; [29]
  GI50: 9.77 µM
[28]; [30]
  IC (TGI): 56.2 µM
